From US20110283604A1, “BIODEGRADATION OF RENEWABLE HYDROCARBON FUEL BLENDS” (BUTAMAX(TM) ADVANCED BIOFUELS LLC, priority 2010, published 2011)

Tests used:
[1] = system: soil-groundwater slurries; experiment: Aerobic microcosm biodegradation of BTEX, isobutanol and ethanol
Method: Soil and groundwater for laboratory microcosm testing were collected from within Site 60 at Vandenberg Air Force Base, CA. The site has a history of gasoline contamination, but has undergone an extensive cleanup program. Collected groundwater was containerized in sterile stainless steel soda kegs (18.5 L) under nitrogen headspace. […] The core samples in acetate sleeves were capped and sealed in the field to minimize exposure to air, shipped overnight on ice to the laboratory, and stored at 4° C.
Soil was removed from the acetate sleeves in an anaerobic chamber (Coy Laboratory Products, Inc., Grass Lake, Mich.) and the first 10 cm of the core ends that may have been exposed to oxygen were discarded. Collected soil consisted of silty sand with some gravel and larger stones. The soil was passed through a 0.95 cm sieve, homogenized, and then stored in amber glass jars with Teflon®-lined caps at 4° C. until microcosm setup was complete. (NA=Not Analyzed; * SVOC (semi volatile organic compound) detections include 0.008 mg L^−1 phenol and 0.003 mg L^−1 bis(2-ethylhexyl) phthalate; ** standard units).
Final transformation products were not determined. For comparison, one treatment was prepared using ethanol instead of isobutanol. […] Controls were amended with mercuric chloride and formaldehyde. BTEX and alcohol concentrations were selected to represent (approximately) potential groundwater concentrations that would be observed within a source area and in the near downgradient plume. The greater ethanol concentrations relative to the isobutanol concentrations used in this study were intended to reflect effective solubilities of isobutanol and ethanol in groundwater. […] The SET 1 treatments were prepared within 4 days of sample collection whereas SET 2 treatments were prepared after approximately 2 months of soil and groundwater storage.
Microcosms were prepared by placing 40 g of site soil into each of 54 glass serum bottles (approximate volume 160 mL each). BTEX and alcohol (isobutanol or ethanol) were added to the treatment bottles to attain the target concentrations shown in Tables 2A and B. Bottles were filled with groundwater so as to leave 10 mL of headspace. Controls were amended with mercuric chloride (700 mg/L in bottles) to inhibit microbial activity. Controls were subsequently amended with formaldehyde (1% v/v in bottles) after 4 days to limit microbial activity. Treatments were prepared with a minimum of 3 and up to 8 replicates each.
The prepared microcosms were incubated at 15° C. on a rotary shaker operating at 100 rpm. Headspace in each of the bottles was monitored for BTEX and oxygen. Aqueous BTEX concentrations were calculated by applying Henry's Law. Samples of the aqueous phase were analyzed for isobutanol and ethanol, as well as potential isobutanol degradation products (iso-butylaldehyde and iso-butyric acid). The headspace of each bottle was periodically flushed with oxygen gas to maintain aerobic conditions in the bottles. The headspace of each control bottle also was flushed with oxygen to evaluate potential losses of BTEX due to the flushing process.
Headspace gases were analyzed for BTEX by using a Varian CP-3900 gas chromatograph equipped with an FID and a Restek QSPLOT column (30 m length, 0.32 mm diameter) with an injector temperature of 260° C. and a detector temperature of 290° C. Headspace oxygen was analyzed by using a Varian CP-3800 gas chromatograph equipped with a Pulsed Discharge Helium Ionization Detector (PDHID) and both a CP-Molsiene 5A column and a CP-ParaBond Q column (both 10 m length, 0.32 mm diameter), an injector temperature of 210° C., and a detector temperature of 240° C. […] Aqueous alcohol concentrations (as well as iso-butylaldehyde and iso-butyric acid) were measured by first collecting a 130 μL subsample preserved with mercuric chloride.

[2] = Water tolerance and phase separation tests on isobutanol-ethanol-gasoline blends; assay type: physicochemical; conditions: E10 gasoline
Method: Scoping water tolerance and phase separation tests were conducted on isobutanol-ethanol-gasoline blends at 65° F. […] Concentrations in both the hydrocarbon and aqueous phase were determined by GC.

[3] = higher concentration treatments, aerobic (isobutanol: data of Treatments 4 and 5; ethanol treatment)
[4] = Treatment 1 (Low BTEX), aerobic, 15° C.
[5] = Treatment 2 (High BTEX), aerobic
[6] = Treatment 3 (Low BTEX + IBA 68 μM), aerobic
[7] = Treatment 4 (High BTEX + IBA 3,400 μM), SET 1, aerobic
[8] = Treatment 5 (High BTEX + IBA 3,400 μM), SET 2, aerobic
[9] = Treatment 6 (High BTEX + Ethanol 11,000 μM), aerobic

| Compound | rate constant in lower concentration treatment relative to isobutanol or ethanol in higher concentration treatments ([1]; Treatment 3 vs higher concentration treatments, aerobic) | observed first-order biodegradation rate constant [1, 3] | observed first-order biodegradation rate constant ([1]; lower concentration treatment (Treatment 3), aerobic) | effect of increased levels on aqueous phase volume during phase separation ([2]; 1.3% and 2.6% water, FIG. 11) | effect on amount of ethanol extracted into the aqueous phase ([2]; FIG. 12) | Lag [1, 4] | Lag [1, 5] | Lag [1, 6] | Lag [1, 7] | Lag [1, 8] | Lag [1, 9] |
| --- | --- | --- | --- | --- | --- | --- | --- | --- | --- | --- | --- |
| CC(C)CO [isobutanol] | approximately 3.5 times | 0.081 ± 0.0044 day⁻¹ | 0.28 ± 0.054 day⁻¹ | reduced aqueous phase volume | acts as a co-solvent for ethanol | – | – | – | – | – | – |
| c1ccccc1 [Benzene, benzene] | – | – | – | – | – | 0 days | 6 days | 0 days | 1 days | 1 days | 1 days |
| total xylenes | – | – | – | – | – | 2 days | 0 days | 1 days | 0 days | 1 days | 1 days |
| CCc1ccccc1 [Ethylbenzene, ethylbenzene] | – | – | – | – | – | 2 days | 5 days | 1 days | 0 days | 1 days | 1 days |
| Cc1ccccc1 [Toluene, toluene] | – | – | – | – | – | 0 days | 5 days | 0 days | 5 days | 1 days | 1 days |
| CCO [ethanol, reference compound] | – | 0.074 ± 0.0023 day⁻¹ | – | – | – | – | – | – | – | – | – |
